Reference: PMC10153383, “Pharmacophore Variants of the Macrocyclic Peptide Triazole Inactivator of HIV-1 Env” (Research Square, 2023)
*1 amine or outer side, *2 acyl side, *3 side chain or, on linkers, in order; H or OH if unused. Where a SMILES comes first, the peptide text is derived from it. Bridges are numbered along the chain shown (N, C = ends). [ ]: non-standard residue; d: D form. X1 = O=C([C@@H]1C[C@H](n2cc(-c3ccc(-c4cccs4)cc3)nn2)CN1[*:1])[*:2]; Trp(5-Br) = N[C@@H](Cc1c[nH]c2ccc(Br)cc12)C(=O)O; Trp(1-Me) = Cn1cc(C[C@H](N)C(=O)O)c2ccccc21

Biological target: T1, YU2 gp120 (Human immunodeficiency virus type 1 group M subtype B, UniProt P35961)
T1 construct: The DNA for gp120YU-2 in pcDNA3.1 vector for transient transfection; made in house; host or cells: HEK-293F
Assay type: binding, HIV-1
From the text: A state-of-the-art Biacore S200 SPR optical biosensor, which can resolve dissociation rates of 0.1–1.0 s^−1, was employed to measure the YU2 gp120 binding kinetics of cPT’s. […] The insets in Fig. 3 show the binding isotherms plotted from the binding signals at steady state, as a function of peptide concentration. Reproducibility of the SPR binding assays was verified by running experiments at gp120 densities ranging from 10 to 29 RU/kDa. […] The calculated apparent (KD), the steady state affinities (eq KD) and experimental Rmax or maximum binding capacities for each gp120 surface are reported.
SPR experiments were performed on a Biacore S200 biosensor (Cytiva Global Life Sciences Solutions) at 25°C using PBS-P (10 mM Phosphate, 150 mM NaCl, pH 7.4, 0.005% P-20 and 2 or 5%DMSO) as the running and sample buffers. […] The 9 to 10 cPT concentrations were injected in duplicate spanning 1000-fold (~ 0.001 to 2.0 μM) at a flow rate of 75–100 μL/min where associations were monitored for 3 minutes and the final dissociation phase in running buffer monitored for 5 minutes for complete dissociation or by injecting two 9-second pulses of 10 mM glycine pH 2.0 to remove any bound analyte. […]

| SMILES | increase in dissociation rate relative to parent peptide (SPR, MG-I-13 vs AAR029N2, MG-II-55 vs MG-II-20) [fold] | equilibrium binding isotherm KD, fold lower (affinity) versus AAR029N2 (SPR steady state isotherm, Fig. 3C inset) [fold] |
| --- | --- | --- |
| CC[C@H](C)[C@@H]1NC(=O)[C@H](CC(N)=O)NC(=O)[C@@H](N)CC(=O)NCCCC[C@@H](C(N)=O)NC(=O)[C@H](Cc2c[nH]c3ccc(Br)cc23)NC(=O)[C@@H]2C[C@H](n3cc(-c4ccc(-c5cccs5)cc4)nn3)CN2C1=O [MG-I-13] (H-DNI[X1][Trp(5-Br)]K-NH2; lactam 1-6; N-terminus and C-terminus assumed) | 2.5 | – |
| CC[C@H](C)[C@@H]1NC(=O)[C@H](CC(N)=O)NC(=O)[C@@H](N)CC(=O)NCCCC[C@@H](C(N)=O)NC(=O)[C@H](Cc2cn(C)c3ccccc23)NC(=O)[C@@H]2C[C@H](n3cc(-c4ccc(-c5cccs5)cc4)nn3)CN2C1=O [MG-II-39] (H-DNI[X1][Trp(1-Me)]K-NH2; lactam 1-6; N-terminus and C-terminus assumed) | – | 5 |
